The results in this text go back to ChEMBL document CHEMBL5335838, “The medicinal chemistry evolution of antibody-drug conjugates” (RSC Med Chem, 2024).

Data set [1] can be described thus: Half life in CD1 mouse at 3 mg/kg, iv. The class given is ADME, organism-based. As to conditions: in vivo.
Data set [2] can be described thus: AUC in CD1 mouse at 3 mg/kg, iv. The note with it: in vivo. Set-up: dose 3 mg/kg, route iv. The class given is ADME, organism-based.
Data set [3] is described as follows: Plasma clearance in CD1 mouse at 3 mg/kg, iv. The note with it: in vivo. The class given is ADME, organism-based.
Data set [4] in a line: Volume of distribution at steady state in Sprague-Dawley rat at 0.5 mg/kg, iv. The format is ADME, organism-based. The note with it: in vivo, read-out: Vdss.
The nature of data set [5]: Cmax in Sprague-Dawley rat at 3 mg/kg, po. The format is ADME, organism-based. Set-up: dose 3 mg/kg, route po. The note with it: in vivo.
A short description of data set [6]: Half life in Sprague-Dawley rat at 3 mg/kg, po. The note with it: in vivo. The class given is ADME, organism-based.
The nature of data set [7]: Tmax in CD1 mouse at 10 mg/kg, po. As to conditions: in vivo. The class given is ADME, organism-based.
Data set [8] can be described thus: Half life in CD1 mouse at 10 mg/kg, po. The note with it: in vivo. The class given is ADME, organism-based.
Data set [9] can be described thus: Cmax in CD1 mouse at 10 mg/kg, po. The class given is ADME, organism-based. Set-up: dose 10 mg/kg, route po. The note with it: in vivo.
The nature of data set [10]: Plasma clearance in Sprague-Dawley rat at 0.5 mg/kg, iv. The format is ADME, organism-based. As to conditions: in vivo.
Data set [11] concerns the target T1, Cytochrome P450 1A2 (Homo sapiens, UniProt P05177).
T1 sequence (P05177 whole entry): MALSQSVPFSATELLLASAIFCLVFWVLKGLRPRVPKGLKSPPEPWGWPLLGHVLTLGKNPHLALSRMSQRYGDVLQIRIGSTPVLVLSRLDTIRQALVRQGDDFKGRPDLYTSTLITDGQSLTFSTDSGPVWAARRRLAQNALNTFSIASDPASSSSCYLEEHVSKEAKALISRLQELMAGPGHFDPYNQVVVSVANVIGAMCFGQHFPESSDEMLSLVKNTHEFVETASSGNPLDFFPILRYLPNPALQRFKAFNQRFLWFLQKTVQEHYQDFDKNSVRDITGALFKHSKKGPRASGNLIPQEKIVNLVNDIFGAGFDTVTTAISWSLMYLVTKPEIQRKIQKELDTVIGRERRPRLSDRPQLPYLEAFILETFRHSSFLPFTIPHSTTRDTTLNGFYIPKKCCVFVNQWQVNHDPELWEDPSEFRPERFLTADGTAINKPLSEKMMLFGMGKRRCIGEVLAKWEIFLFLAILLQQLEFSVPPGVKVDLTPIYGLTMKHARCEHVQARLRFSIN
The data set is described as follows: Inhibition of CYP1A2 (unknown origin). The format is ADME.

Data set [12] deals with Cytochrome P450 2C9 (Homo sapiens, UniProt P11712). The data set is described as follows: Inhibition of CYP2C9 (unknown origin). The class given is ADME.
Cytochrome P450 2C9, sequence (P11712 whole entry): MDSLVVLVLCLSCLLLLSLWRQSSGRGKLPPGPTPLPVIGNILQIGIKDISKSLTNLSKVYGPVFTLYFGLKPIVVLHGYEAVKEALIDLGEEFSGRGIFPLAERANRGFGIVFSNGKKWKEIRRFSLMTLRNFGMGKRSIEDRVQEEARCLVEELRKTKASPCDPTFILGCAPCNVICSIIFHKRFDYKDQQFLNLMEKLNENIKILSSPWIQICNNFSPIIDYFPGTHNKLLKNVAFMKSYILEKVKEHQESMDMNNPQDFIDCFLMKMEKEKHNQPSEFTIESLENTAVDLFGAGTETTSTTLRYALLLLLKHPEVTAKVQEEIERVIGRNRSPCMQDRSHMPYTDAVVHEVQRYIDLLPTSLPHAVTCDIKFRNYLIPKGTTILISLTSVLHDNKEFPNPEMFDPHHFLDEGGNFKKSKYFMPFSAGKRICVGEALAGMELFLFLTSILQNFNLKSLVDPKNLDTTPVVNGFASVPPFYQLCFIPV
Data set [13] concerns the target Cytochrome P450 2D6 (Homo sapiens, UniProt P10635). Description: Inhibition of CYP2D6 (unknown origin). The format is ADME.
Data set [14] in a line: AUC in Sprague-Dawley rat at 0.5 mg/kg, iv. The class given is ADME, organism-based. Set-up: dose 0.5 mg/kg, route iv. As to conditions: in vivo.
A short description of data set [15]: Oral bioavailability in CD1 mouse at 10 mg/kg. The class given is ADME, organism-based. The note with it: in vivo.
Data set [16] in a line: Permeability of compound at pH 7.4 by PAMPA assay. The class given is ADME. The note with it: read-out: permeability.
Data set [17] can be described thus: Half life in Sprague-Dawley rat at 0.5 mg/kg, iv. As to conditions: in vivo. The format is ADME, organism-based.
Data set [18] is described as follows: Solubility of compound at pH 7.4. The class given is physicochemical. As to conditions: buffer.
A short description of data set [19]: Oral bioavailability in Sprague-Dawley rat at 3 mg/kg. The note with it: in vivo. The class given is ADME, organism-based.
The nature of data set [20]: Volume of distribution at steady state in CD1 mouse at 3 mg/kg, iv. As to conditions: in vivo, read-out: Vdss. The class given is ADME, organism-based.
Data set [21] is described as follows: AUC (0 to infinity) in CD1 mouse at 10 mg/kg, po. The format is ADME, organism-based. Set-up: dose 10 mg/kg, route po. The note with it: in vivo.
The nature of data set [22]: Plasma protein binding in mouse assessed as unbound fraction. The format is ADME, cell-free.
Data set [23] can be described thus: AUC (0 to infinity) in Sprague-Dawley rat at 3 mg/kg, po. Set-up: dose 3 mg/kg, route po. The class given is ADME, organism-based. As to conditions: in vivo.
Data set [24] has as its target Cytochrome P450 3A4 (Homo sapiens, UniProt P08684). Description: Inhibition of CYP3A4 (unknown origin). The format is ADME.
Data set [25] in a line: Tmax in Sprague-Dawley rat at 3 mg/kg, po. As to conditions: in vivo. The format is ADME, organism-based.
A short description of data set [26]: Permeability of the compound by PAMPA assay. The format is ADME. As to conditions: read-out: permeability. (In PAMPA a lipid-coated filter parts donor from acceptor wells.)
Data set [27] concerns the target T2, Glucocorticoid receptor (Homo sapiens, UniProt P04150).
T2 sequence (P04150 whole entry): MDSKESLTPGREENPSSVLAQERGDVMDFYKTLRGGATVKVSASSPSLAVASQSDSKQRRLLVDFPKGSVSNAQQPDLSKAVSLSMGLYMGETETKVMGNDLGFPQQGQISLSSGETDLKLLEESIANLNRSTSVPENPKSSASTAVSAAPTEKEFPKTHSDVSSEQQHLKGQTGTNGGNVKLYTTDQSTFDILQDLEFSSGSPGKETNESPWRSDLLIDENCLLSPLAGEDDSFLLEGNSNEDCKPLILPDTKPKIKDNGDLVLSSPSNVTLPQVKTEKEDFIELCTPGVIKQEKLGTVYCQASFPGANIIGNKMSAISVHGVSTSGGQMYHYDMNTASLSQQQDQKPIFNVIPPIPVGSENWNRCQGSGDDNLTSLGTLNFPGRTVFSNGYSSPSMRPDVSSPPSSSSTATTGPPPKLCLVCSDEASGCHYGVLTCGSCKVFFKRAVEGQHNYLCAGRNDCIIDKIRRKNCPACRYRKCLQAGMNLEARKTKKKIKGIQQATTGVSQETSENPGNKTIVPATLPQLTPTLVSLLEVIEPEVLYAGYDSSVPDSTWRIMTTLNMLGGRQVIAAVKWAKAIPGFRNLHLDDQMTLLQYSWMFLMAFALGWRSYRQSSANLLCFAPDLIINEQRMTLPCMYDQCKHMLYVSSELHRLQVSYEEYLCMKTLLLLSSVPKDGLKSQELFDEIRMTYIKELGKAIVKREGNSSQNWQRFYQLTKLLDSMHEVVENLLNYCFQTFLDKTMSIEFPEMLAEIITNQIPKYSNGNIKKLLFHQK
The data set is described as follows: Inhibition of glucocorticoid receptor (unknown origin).

≈ marks a conversion by molar mass, not a printed value.

Cytochrome P450 3A4, sequence (P08684 whole entry): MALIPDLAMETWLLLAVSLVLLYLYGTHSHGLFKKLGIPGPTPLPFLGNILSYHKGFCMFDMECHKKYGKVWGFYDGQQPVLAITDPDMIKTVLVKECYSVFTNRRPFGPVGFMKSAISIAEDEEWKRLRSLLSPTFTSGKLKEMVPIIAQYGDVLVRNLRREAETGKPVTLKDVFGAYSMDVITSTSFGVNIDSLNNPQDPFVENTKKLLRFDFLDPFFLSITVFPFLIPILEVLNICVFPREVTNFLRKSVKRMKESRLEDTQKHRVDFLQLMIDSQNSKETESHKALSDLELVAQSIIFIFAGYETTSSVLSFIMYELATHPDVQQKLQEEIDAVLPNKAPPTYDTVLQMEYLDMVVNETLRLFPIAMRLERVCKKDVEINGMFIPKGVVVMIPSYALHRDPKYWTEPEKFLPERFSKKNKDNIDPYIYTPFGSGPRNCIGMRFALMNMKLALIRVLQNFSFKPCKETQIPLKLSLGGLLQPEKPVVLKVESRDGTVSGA
Cytochrome P450 2D6, sequence (P10635 whole entry): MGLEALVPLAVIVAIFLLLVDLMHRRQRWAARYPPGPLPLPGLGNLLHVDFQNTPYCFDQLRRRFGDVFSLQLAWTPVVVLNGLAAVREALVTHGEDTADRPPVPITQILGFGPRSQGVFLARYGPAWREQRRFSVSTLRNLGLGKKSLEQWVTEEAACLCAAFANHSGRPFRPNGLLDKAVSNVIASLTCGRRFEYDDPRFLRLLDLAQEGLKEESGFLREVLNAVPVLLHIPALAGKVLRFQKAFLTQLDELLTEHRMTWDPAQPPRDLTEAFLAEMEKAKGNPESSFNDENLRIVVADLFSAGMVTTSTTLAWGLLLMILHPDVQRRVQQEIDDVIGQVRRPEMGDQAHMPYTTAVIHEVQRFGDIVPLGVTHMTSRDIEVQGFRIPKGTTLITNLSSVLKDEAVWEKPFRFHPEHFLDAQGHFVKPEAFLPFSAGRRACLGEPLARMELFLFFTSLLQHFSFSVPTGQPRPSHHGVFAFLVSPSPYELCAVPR

For the molecule `C[C@]12C=CC(=O)C=C1CC[C@@H]1[C@@H]2[C@@H](O)C[C@@]2(C)[C@H]1C[C@H]1O[C@@H](c3ccc(Cc4cccc(N)c4)cc3)O[C@]12C(=O)CO`, the half-life (usually the time needed for the level to fall by half in the phase considered) in data set [1] was 3.82 h; in data set [6] it was 2.86 h; in data set [8], 3.56 h; in data set [17], 1.2 h. Further, the AUC in [2] was 3580 ng·h/mL; in data set [14] it was 220 ng·h/mL; in [21], 0.21 µg/h/mL. For the same molecule, the clearance (as a rule, the rate of elimination divided by the concentration) in data set [3] stood at 14.2 mL/min/kg; in data set [10], 37.8 mL/min/kg. The Vd is 2.55 L/kg in data set [4] and 2.91 L/kg in data set [20]. Besides, the highest concentration (Cmax) (commonly the maximum level reached in the sampled fluid or tissue) was determined as 80 ng/mL in [5] and 40 ng/mL in data set [9]. In addition, the Tmax (in general, the time at which the peak concentration occurs) in data set [7] turned out to be 1.42 h; in data set [25], 0.25 h. The IC50 (in general, the concentration that inhibits the measured activity by half) in [11] was greater than 40 µM; in data set [12], 18.4 µM; in data set [13] it was greater than 40 µM; in data set [24] it was less than 0.02 µM. Besides, the bioavailability (commonly dose-corrected exposure relative to a reference, in per cent) in data set [15] was determined as 1%; in data set [19], 16.8%. Also, the Papp in data set [16] turned out to be 0.2 ×10⁻⁶ cm/s. Besides, the concentration in solution in [18] (solubility) came to 1.33 µM (≈ 0.758 µg/mL). Moreover, the Fu in data set [22] is given as 0.01%. Moreover, the AUC(0-inf) (as a rule, total exposure, with the tail of the curve extrapolated) in [23] was 220 ng·h/mL.
In the case of `C[C@]12C=CC(=O)C=C1CC[C@@H]1[C@@H]2[C@@H](O)C[C@@]2(C)[C@H]1C[C@H]1O[C@@H](c3ccc(CN4CCNCC4)cc3)O[C@]12C(=O)CO`, the Papp in [26] is 0.23 ×10⁻⁶ cm/s.
As for `C[C@]12C=CC(=O)C=C1[C@@H](F)C[C@H]1[C@@H]3C[C@H]4O[C@@H](c5ccc(CN6CCNCC6)cc5)O[C@@]4(C(=O)CO)[C@@]3(C)C[C@H](O)[C@@]12F`, the Papp in [26] amounted to 0.22 ×10⁻⁶ cm/s.
With `C[C@]12C=CC(=O)C=C1CC[C@@H]1[C@@H]2[C@@H](O)C[C@@]2(C)[C@H]1C[C@H]1O[C@@H](C3CCCCC3)O[C@]12C(=O)CO` [DESISOBUTYRYLCICLESONIDE], 0.002 µM corresponded to half-maximal inhibition in data set [27] (IC50).
